Test results reported in article PMC11129195, “Novel Re(I) Complexes as Potential Selective Theranostic Agents in Cancer Cells and In Vivo in Caenorhabditis elegans Tumoral Strains” (Journal of Medicinal Chemistry, 2024).

Columns and labels:
A2780 cells [1] = assay: DNA damage by pH2AX staining, flow cytometry; format: cell-based, human; conditions: A2780, 24 h
Method: DNA damage was evaluated by flow cytometry in A2780 cells. […] Cells were then collected by trypsinization, washed with PBS, and fixed in 200 μL 0.2% PFA for 5 min. After fixation, cells were pelleted, suspended in a 3% FBS solution containing anti phospho-H2AX ([…]) FITC-conjugated monoclonal antibody (CR55T33, eBioscience) at a concentration of 0.6 μg/mL, and incubated for 2 h at room temperature in the dark. Analysis of stained cells was carried out using a Becton Dickinson FACSCalibur flow cytometer with 10,000 acquisitions per sample, registering the FL1-H channel (λexc = 488 nm). Two independent experiments, each with n = 2, were conducted.

HeLa = assay: MTT antiproliferative activity in HeLa cells; format: cell-based, human; conditions: MTT test, 48 h of treatment
Method: (§1) Human ovarian carcinoma cell lines (A2780) were cultured in RPMI-1640 medium, while the human cervix adenocarcinoma cell line (HeLa), tumor breast cancer cell line, and nontumorigenic buffalo green monkey cells (BGM) were cultured in DMEM and EMEM (containing nonessential amino acids) medium. The cell culture media were supplemented with 10% fetal bovine serum (FBS), 1% L-glutamine, and 1% penicillin/streptomycin. The cells were maintained in a humidified incubator at 37 °C with a 5% CO2 atmosphere and subcultured 2–3 times a week, each with an appropriate density for its specific cell line. Prior to the experiments, the cell lines were confirmed to be free from mycoplasma contamination using Hoechst DNA staining standard procedures. During cell-based assays, the maximum amount of dimethyl sulfoxide (DMSO) added as a solvent for treatment was limited to 0.4% (v/v) to avoid any potential vehicle-induced toxicity to the cells. Cells were cultured in 96-well plates and allowed to reach confluence. The tested compounds were dissolved in DMSO at a maximum concentration of 0.4% (v/v) and immediately diluted with fresh media. The cells were then incubated with varying concentrations of the Re1–Re9 for 48 h at 37 °C. […] The absorbance at 570 nm was measured using a microplate reader (FLUOstar Omega).

A2780 cells [2] = assay: Annexin V-FITC/PI dual staining, flow cytometry; format: cell-based, human; conditions: 10 μM, 24 h
Method: The annexin V/PI assay was performed following the instructions provided by the manufacturer (Roche). A2780 cells were seeded in 12-well plates at a density of 3 × 10^5 cells/well and incubated overnight. […] After the treatment, the cells were collected and stained with annexin V and PI, following the procedure mentioned earlier. The staining was carried out at room temperature for 15 min in the absence of light, and the samples were immediately analyzed using flow cytometry (FACSCalibur Beckton Dickinson) with an excitation wavelength of 488 nm. The absorbance at 488 nm of compound Re9 was considered negligible. The data obtained from the assay were analyzed using FlowJo Software (TreeStar).

A2780 cells [3] = assay: Scanning electron microscopy of cell morphology; format: cell-based, human; conditions: A2780, 24 h
Method: A2780 cells were treated with CDDP and Re9 for 24 h. Cells then were fixed with 4% PFA fix solution for 30 min and washed with PBS three times. Sample were dehydrated through a graded series of ethanol (30, 50, 70, 95, and 100%), dried by the tertiary butanol method, and then imaged with a SEM operating at 20.0 kV.

C. elegans strain MT2124 = format: in vivo, Caenorhabditis elegans
Text: Caenorhabditis elegans strains JK1466 [gld-1(q485)/dpy-5(e61) unc-13(e51)] and MT2124 [let-60(n1046)] were kindly donated by the Caenorhabditis Genetic Center (CGC, Saint Paul, Minnesota, United States), which is funded by the “NIH Office of Research Infrastructure Programs” (P40 OD010440). The strains were maintained and cultured following the protocols established by Stiernagle.[78]−[80] Synchronous cohorts of C. elegans prepared using the bleach method were used in all the assays.
MT2124 (Muv phenotype) L1 larvae were incubated for 72 h at 20 °C in S basal medium with different concentrations of Re9 (0.1–150 μM) supplemented with E. coli OP50. Antitumoral evaluation was performed following the protocol described by Medina and coauthors with modifications.[81] Ten microliters of a suspension containing young adult nematodes were place in a microscope slide along with 10 μL of sodium azide to reduce its movement. Images of whole worms were taken at 10× magnification using the bright-field microscope. The animals were classified as multivulva (MT) if they had more than one vulva protruding from the […] (Figure 12B) or wild-type if they only had one (WT). Then, the percentage of multivulva animals were calculated with eq 1. [drawing 1] 1
Additionally, the number of vulvas of the multivulva animals were counted. Two independent assays were performed with n ≥ 25 and the statistical significance was estimated by the ANOVA test.

A2780 = assay: MTT antiproliferative activity in A2780 cells; format: cell-based, human; conditions: MTT test, 48 h of treatment
Method: as §1

C. elegans strain JK1466 = system: C. elegans strain JK1466; parameters: method as in earlier work; conditions: ref "Recent studies"; cited from earlier work
BGM = assay: MTT test in nontumorigenic BGM cells; format: cell-based, buffalo green monkey; conditions: 48 h of treatment, normal cells
Method: as §1

wild-type C. elegans = system: wild-type C. elegans; parameters: method as in PMID 29752286; conditions: 100 μM, cited from earlier work
A2780 cells [4] = assay: Mitochondrial membrane potential, JC-1 staining; format: cell-based, human; conditions: Re9 1.25 and 2.5 μM, 24 h, antimycin A 6 h
Method: After the treatment period, the cells were collected and resuspended in prewarmed PBS containing JC-1 (1 μM). The cell suspension was then incubated for 30 min at 37 °C. Following the incubation, the cells were washed twice with PBS and immediately analyzed using a flow cytometer (FACSCAlibur Beckton Dickinson). Fluorescence measurements were performed by detecting both the monomeric (emission at 530 ± 30 nm; green) and aggregated (emission at 585 ± 30 nm; red) forms of JC-1 upon excitation at 488 nm. For each sample, a total of 10,000 events were acquired during the analysis.

| Structure (SMILES) | DNA damage (pH2AX staining) (A2780 cells [1]) | IC50 (HeLa) [µM] | Q2 cells (annexin V+/PI+, late apoptotic or pyroptotic) (A2780 cells [2]) [%] | Q3 cells (annexin V+/PI–, early apoptotic) (A2780 cells [2]) [%] | cell death type from SEM morphology (A2780 cells [3]) | reduction of MT phenotypic incidence (C. elegans strain MT2124; 50 μM) [%] | reduction of the number of vulvas (C. elegans strain MT2124; 50 μM) [%] | MT (multivulva animals) (C. elegans strain MT2124; 50 μM, 72 h) [%] | WT (wild-type nematodes) (C. elegans strain MT2124; 50 μM, 72 h) [%] | n° vulvas (C. elegans strain MT2124; 50 μM, multivulva phenotype nematodes) | effect of concentrations above 50 μM on the nematodes (C. elegans strain MT2124; in vivo) | IC50 (A2780) [µM] | reduction of tumor size (C. elegans strain JK1466) [%] | IC50 (BGM) [µM] | progeny, share of the expected brood (wild-type C. elegans; L4 animals) [%] | reduction of animal size (wild-type C. elegans; wild-type larvae, 48 h) [%] | development stage (wild-type C. elegans; wild-type, 48 h) | mitochondrial membrane potential (MMP) levels (A2780 cells [4]) |
| --- | --- | --- | --- | --- | --- | --- | --- | --- | --- | --- | --- | --- | --- | --- | --- | --- | --- | --- |
| N.N.[Cl][Pt][Cl] [cisplatin] | significantly contributed to the induction of DNA damage | 23.3 ± 2 | 16.9 | 13.8 | apoptosis | 58.2 | 52 | 34.62 | 65.38 | 1.40 | developmental arrest | 2.9 ± 0.4 | 48 | 6.8 ± 0.9 | 10 | 75 | L2 stage |  |
| CCCCCC[C@H]1C(=O)O[C@H](C)[C@H](NC(=O)c2cccc(NC=O)c2O)C(=O)O[C@@H](C)[C@@H]1OC(=O)CC(C)C [antimycin A, Antimycin A] |  |  |  |  |  |  |  |  |  |  |  |  |  |  |  |  |  | significant decrease in MMP levels |
